IC50 data for 53 compounds are collected here from patent US8759537B2, “3H-imidazo [4, 5-C] pyridine-6-carboxamides as anti-inflammatory agents” (Boehringer Ingelheim International GmbH, priority 2010, dated 2014).

Chain of mPGES-1 (O14684 whole entry): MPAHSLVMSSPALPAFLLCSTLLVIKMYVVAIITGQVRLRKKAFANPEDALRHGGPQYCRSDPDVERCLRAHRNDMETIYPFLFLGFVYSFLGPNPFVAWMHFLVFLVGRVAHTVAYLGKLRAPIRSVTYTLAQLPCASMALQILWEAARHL

In the experiment the target is mPGES-1 (Homo sapiens (Human), UniProt O14684). Put plainly: A549 cell-based assay (PGE2 formation, IL-1β stimulated, 50% human serum). To be noted: A549 cells, IL-1β 5 ng/ml, read-out: mPGES-1 inhibitory effect in the cell assay, IC50. The procedure:
Although the enzymatic assay is a high throughput assay the disadvantage is that it uses a recombinant protein which is not in its natural environment. Accordingly a cellular assay was established in which a cell line of human origin (A549) expressing the mPGES-1 protein was used. In addition in order to mimic the situation in humans in which compounds can be bound to plasma proteins 50% human serum is added in the assay.
Cells were detached using Trypsin-EDTA. A549 cells were seeded in a 384-well collagene plate at a density of 7000 cells/well (50 μl) in F-12 medium containing 1% Penicillin-Streptomycin and 50% human serum. The cells were allowed to attach for 3-4 h. […] The total volume is 100 μl.
Concentrations of PGE2 in the cell free medium (10 μl) were measured using a commercially available HTRF kit from Cisbio (as described above). The PGE2 formation in the absence of test compound was taken as 100%.
IC50 values were derived from at 6-8 point titrations using conventional software.
Turning to `Cn1c(Nc2c(Cl)ccc(CNC(=O)C(C)(C)C)c2Cl)nc2cc(C(=O)Nc3ccc(Br)cc3)c(F)cc21` [Example 7], the IC50 turned out to be 1 nM.

In the case of `CC(C)(C)C(=O)NCc1ccc(F)c(Nc2nc3cc(C(=O)Nc4ccc(Br)cc4)c(OCC(F)F)cc3n2C2CC2)c1F` [Example 11], the half-inhibitory concentration (IC50) turned out to be 4 nM.

Consider `Cn1c(Nc2c(Cl)ccc(CNC(=O)C(C)(C)C)c2Cl)nc2cc(C(=O)Nc3cccc(C#N)c3)c(OCC(F)F)cc21` [Example 28], for which the IC50 worked out at 1 nM.

Take `CC(C)(C)C(=O)NCc1ccc(Cl)c(Nc2nc3cc(OC(F)F)c(C(=O)N[C@H]4CC[C@H](C(F)(F)F)CC4)cc3[nH]2)c1Cl` [Example 78]: the IC50 stood at 8 nM.

In the case of `CC(C)(C)C(=O)NCc1ccc(Cl)c(Nc2nc3c(F)c(OCC(F)(F)F)c(C(=O)N[C@H]4CC[C@H](C(F)(F)F)CC4)cc3[nH]2)c1Cl` [Example 79], the IC50 is 1 nM.

As to `Cn1c(Nc2c(Cl)ccc(CNC(=O)C(C)(C)F)c2Cl)nc2cc(C(=O)Nc3ccc(F)c(Cl)c3)c(OCC(F)F)cc21` [Example 84, N-(3-Chloro-4-fluoro-phenyl)-2-{2,6-dichloro-3-[(2-fluoro-2-methyl-propionylamino)-methyl]-phenylamino}-6-(2,2-difluoroethoxy)-1-methyl-1H-benzimidazole-5-carboxylic acid amide], the IC50 is less than 1 nM.

As for `Cn1c(Nc2c(Cl)ccc(CNC(=O)C3(C(F)(F)F)CCC3)c2Cl)nc2cc(C(=O)NCC(F)(F)F)c(OCC(F)F)cc21` [Example 86], the IC50 was less than 1 nM.

On to `Cn1c(Nc2c(Cl)ccc(CNC(=O)C(N)C(F)(F)F)c2Cl)nc2cc(C(=O)NCC(F)(F)F)c(OCC(F)F)cc21` (centres unmarked) [Example 87], for which the IC50 is 221 nM.

As for `Cn1c(Nc2c(Cl)ccc(CNC(=O)CC3CC3)c2Cl)nc2cc(C(=O)NCC(F)(F)F)c(OCC(F)F)cc21` [Example 88], the IC50 turned out to be 68 nM.

Regarding `Cn1c(Nc2c(Cl)ccc(CNC(=O)C3CCCO3)c2Cl)nc2cc(C(=O)NCC(F)(F)F)c(OCC(F)F)cc21` (centres unmarked) [Example 90], the IC50 turned out to be 36 nM.

Regarding `Cn1c(Nc2c(Cl)ccc(CNC(=O)C3CCC3)c2Cl)nc2cc(C(=O)NCC(F)(F)F)c(OCC(F)F)cc21` [Example 91], the IC50 came out at 10 nM.

`Cn1c(Nc2c(Cl)ccc(CNC(=O)c3ccc(Cl)s3)c2Cl)nc2cc(C(=O)NCC(F)(F)F)c(OCC(F)F)cc21` [Example 92]: the IC50 stood at 9 nM.

In the case of `Cn1c(Nc2c(Cl)ccc(CNC(=O)C3(O)CC3)c2Cl)nc2cc(C(=O)NCC(F)(F)F)c(OCC(F)F)cc21` [Example 93], the half-inhibitory concentration (IC50) is 66 nM.

Consider `Cn1c(Nc2c(Cl)ccc(CNC(=O)C(C)(F)F)c2Cl)nc2cc(C(=O)NCC(F)(F)F)c(OCC(F)F)cc21` [Example 95], for which the IC50 was 13 nM.

Regarding `Cn1c(Nc2c(Cl)ccc(CNC(=O)C(O)C(F)(F)F)c2Cl)nc2cc(C(=O)NCC(F)(F)F)c(OCC(F)F)cc21` (centres unmarked) [Example 96], the IC50 is 14 nM.

In the case of `Cn1c(Nc2c(Cl)ccc(CNC(=O)C(C)(N)C(F)(F)F)c2Cl)nc2cc(C(=O)NCC(F)(F)F)c(OCC(F)F)cc21` (centres unmarked) [Example 98], the IC50 is 2 nM.

Turning to `Cn1c(Nc2c(Cl)ccc(CNC(=O)C3CC3)c2Cl)nc2cc(C(=O)NCC(F)(F)F)c(OCC(F)F)cc21` [Example 100], the IC50 came out at 52 nM.

Turning to `COCC(=O)NCc1ccc(Cl)c(Nc2nc3cc(C(=O)NCC(F)(F)F)c(OCC(F)F)cc3n2C)c1Cl` [Example 101], the IC50 worked out at 11 nM.

On to `Cn1c(Nc2c(Cl)ccc(CNC(=O)C3CC(F)(F)C3)c2Cl)nc2cc(C(=O)NCC(F)(F)F)c(OCC(F)F)cc21` [Example 102], for which the half-inhibitory concentration (IC50) is 15 nM.

Regarding `Cn1c(Nc2c(Cl)ccc(CNC(=O)C3(C)CC3)c2Cl)nc2cc(C(=O)NCC(F)(F)F)c(OCC(F)F)cc21` [Example 103], the IC50 came out at 18 nM.

Take `Cn1c(Nc2c(Cl)ccc(CNC(=O)c3ccno3)c2Cl)nc2cc(C(=O)NCC(F)(F)F)c(OCC(F)F)cc21` [Example 107]: the IC50 came out at 106 nM.

As to `Cn1c(Nc2c(Cl)ccc(CNC(=O)C(C)(C)O)c2Cl)nc2cc(C(=O)NCC(F)(F)F)c(OCC(F)F)cc21` [Example 108], the IC50 turned out to be 59 nM.

On to `C[C@H](O)C(=O)NCc1ccc(Cl)c(Nc2nc3cc(C(=O)NCC(F)(F)F)c(OCC(F)F)cc3n2C)c1Cl` [Example 109], for which the IC50 stood at 57 nM.

Consider `CC(C)C(=O)NCc1ccc(Cl)c(Nc2nc3cc(C(=O)NCC(F)(F)F)c(OCC(F)F)cc3n2C)c1Cl` [Example 110], for which the IC50 stood at 8 nM.

On to `CCC(=O)NCc1ccc(Cl)c(Nc2nc3cc(C(=O)NCC(F)(F)F)c(OCC(F)F)cc3n2C)c1Cl` [Example 111], for which the IC50 was found to be 7 nM.

For `Cn1c(Nc2c(Cl)ccc(CNC(=O)CC#N)c2Cl)nc2cc(C(=O)NCC(F)(F)F)c(OCC(F)F)cc21` [Example 112], the IC50 is 19 nM.

Turning to `Cn1c(Nc2c(Cl)ccc(CNC(=O)C3(C#N)CC3)c2Cl)nc2cc(C(=O)NCC(F)(F)F)c(OCC(F)F)cc21` [Example 113], the IC50 is 25 nM.

For the compound `CC(=O)NCc1ccc(Cl)c(Nc2nc3cc(C(=O)NCC(F)(F)F)c(OCC(F)F)cc3n2C)c1Cl` [Example 115], the half-inhibitory concentration (IC50) was determined as 300 nM.

Turning to `Cn1c(Nc2c(Cl)ccc(CNC(=O)C(C)(C)CO)c2Cl)nc2cc(C(=O)NCC(F)(F)F)c(OCC(F)F)cc21` [Example 126], the IC50 amounted to 72 nM.

As for `Cn1c(Nc2c(Cl)ccc(CNC(=O)c3cc[nH]n3)c2Cl)nc2cc(C(=O)NCC(F)(F)F)c(OCC(F)F)cc21` [Example 127], the IC50 came to 85 nM.

On to `Cn1c(Nc2c(Cl)ccc(CNC(=O)CC(F)(F)F)c2Cl)nc2cc(C(=O)NCC(F)(F)F)c(OCC(F)F)cc21` [Example 128], for which the IC50 is 26 nM.

In the case of `COC(C)(C)C(=O)NCc1ccc(Cl)c(Nc2nc3cc(C(=O)NCC(F)(F)F)c(OCC(F)F)cc3n2C)c1Cl` [Example 130], the IC50 was found to be 3 nM.

In the case of `Cn1c(Nc2c(Cl)ccc(CNC(=O)CC(F)(F)F)c2Cl)nc2cc(C(=O)Nc3ccc(F)c(Cl)c3)c(OCC(F)F)cc21` [Example 131], the IC50 is 1 nM.

`CCCC(=O)NCc1ccc(Cl)c(Nc2nc3cc(C(=O)Nc4ccc(F)c(Cl)c4)c(OCC(F)F)cc3n2C)c1Cl` [Example 132]: the IC50 was 2 nM.

Regarding `Cn1c(Nc2c(Cl)ccc(CNC(=O)C3(C)CC3)c2Cl)nc2cc(C(=O)Nc3ccc(F)c(Cl)c3)c(OCC(F)F)cc21` [Example 133], the IC50 worked out at 1 nM.

On to `Cn1c(Nc2c(Cl)ccc(CNC(=O)c3cc[nH]n3)c2Cl)nc2cc(C(=O)Nc3ccc(F)c(Cl)c3)c(OCC(F)F)cc21` [Example 134], for which the IC50 is 8 nM.

Take `COC(C)(C)C(=O)NCc1ccc(Cl)c(Nc2nc3cc(C(=O)Nc4ccc(F)c(Cl)c4)c(OCC(F)F)cc3n2C)c1Cl` [Example 135]: the IC50 was less than 1 nM.

As for `Cn1c(Nc2c(Cl)ccc(CNC(=O)c3cc(C(F)(F)F)n[nH]3)c2Cl)nc2cc(C(=O)Nc3ccc(F)c(Cl)c3)c(OCC(F)F)cc21` [Example 136], the IC50 was 17 nM.

In the case of `Cn1c(Nc2c(Cl)ccc(CNC(=O)C3CCCO3)c2Cl)nc2cc(C(=O)Nc3ccc(F)c(Cl)c3)c(OCC(F)F)cc21` (centres unmarked) [Example 137], the IC50 is 4 nM.

In the case of `Cc1nc(C)c(C(=O)NCc2ccc(Cl)c(Nc3nc4cc(C(=O)Nc5ccc(F)c(Cl)c5)c(OCC(F)F)cc4n3C)c2Cl)s1` [Example 138], the IC50 was 49 nM.

For `Cn1c(Nc2c(Cl)ccc(CNC(=O)CO)c2Cl)nc2cc(C(=O)Nc3ccc(F)c(Cl)c3)c(OCC(F)F)cc21` [Example 139], the IC50 was 27 nM.

Consider `CC(C(=O)NCc1ccc(Cl)c(Nc2nc3cc(C(=O)Nc4ccc(F)c(Cl)c4)c(OCC(F)F)cc3n2C)c1Cl)C(F)(F)F` (centres unmarked) [Example 141], for which the IC50 is less than 1 nM.

Regarding `Cn1cccc1C(=O)NCc1ccc(Cl)c(Nc2nc3cc(C(=O)Nc4ccc(F)c(Cl)c4)c(OCC(F)F)cc3n2C)c1Cl` [Example 142], the IC50 worked out at 2.5 nM.

As to `Cn1c(Nc2c(Cl)ccc(CNC(=O)CC3CC3)c2Cl)nc2cc(C(=O)Nc3ccc(F)c(Cl)c3)c(OCC(F)F)cc21` [Example 144], the IC50 was 2 nM.

With `Cn1c(Nc2c(Cl)ccc(CNC(=O)C3(C#N)CC3)c2Cl)nc2cc(C(=O)Nc3ccc(F)c(Cl)c3)c(OCC(F)F)cc21` [Example 145], the IC50 turned out to be 7 nM.

For `CCC(=O)NCc1ccc(Cl)c(Nc2nc3cc(C(=O)Nc4ccc(F)c(Cl)c4)c(OCC(F)F)cc3n2C)c1Cl` [Example 146], the IC50 worked out at 2 nM.

As for `CC(O)C(=O)NCc1ccc(Cl)c(Nc2nc3cc(C(=O)Nc4ccc(F)c(Cl)c4)c(OCC(F)F)cc3n2C)c1Cl` (centres unmarked) [Example 147], the IC50 is 4 nM.

For the compound `Cn1c(Nc2c(Cl)ccc(CNC(=O)C3CC3)c2Cl)nc2cc(C(=O)Nc3ccc(F)c(Cl)c3)c(OCC(F)F)cc21` [Example 148], the IC50 worked out at 2 nM.

Take `Cn1c(Nc2c(Cl)ccc(CNC(=O)C(C)(O)C(F)(F)F)c2Cl)nc2cc(C(=O)Nc3ccc(F)c(Cl)c3)c(OCC(F)F)cc21` (centres unmarked) [Example 149]: the IC50 is 1 nM.

For `Cn1c(Nc2c(Cl)ccc(CNC(=O)C3(C)COC3)c2Cl)nc2cc(C(=O)Nc3ccc(F)c(Cl)c3)c(OCC(F)F)cc21` [Example 150], the IC50 stood at 1 nM.

On to `CC(C)C(=O)NCc1ccc(Cl)c(Nc2nc3cc(C(=O)Nc4ccc(F)c(Cl)c4)c(OCC(F)F)cc3n2C)c1Cl` [Example 151], for which the IC50 was determined as 1 nM.

Regarding `Cn1c(Nc2c(Cl)ccc(CNC(=O)C(C)(N)C(F)(F)F)c2Cl)nc2cc(C(=O)Nc3ccc(F)c(Cl)c3)c(OCC(F)F)cc21` (centres unmarked) [Example 152], the IC50 was less than 1 nM.

In the case of `Cn1c(Nc2c(Cl)ccc(CNC(=O)C3CC3(F)F)c2Cl)nc2cc(C(=O)Nc3ccc(F)c(Cl)c3)c(OCC(F)F)cc21` (centres unmarked) [Example 153], the IC50 amounted to 3 nM.
